Results from paper PMC9532951, “Identification and characterization of a novel SNAT2 (SLC38A2) inhibitor reveals synergy with glucose transport inhibition in cancer cells” (Frontiers in Pharmacology, 2022).
Where “and” joins values, the source holds several entries; their conditions need not be identical. Identical values can stand only once.

Experiments:
[1] = system: SNAT1 and SNAT2; experiment: High-throughput compound screen, FMP assay in 384-well format (primary, confirmatory, control compounds); format: cell-based, human; details: 10 mM, 1 mM glutamine
Experimental: For the high-throughput compound screen, the FMP assay was adapted into a 384-well format within the ANU Centre for Therapeutic Discovery. […] Compounds Australia stores compounds under robust environmental conditions and supplies them in assay ready plate format. We screened 33,934 compounds from the Collection Scaffold Library. Cells (10,000/well) were seeded into Corning 384-well black walled plates (CLS3985; Sigma-Aldrich) using a Multidrop Combi liquid dispensing robot (Thermo Fisher) in a 40 µl volume. Once seeded, cells were allowed to grow in a microplate incubator (Liconic) for 24 h at 37°C (humidified atmosphere with 95% air and 5% CO2). Subsequently, plates were washed thrice with 50 µL of mHBSS using a 405 TS washer (BioTek). Then, 50 µl of starvation medium was added and cells were incubated again for 24 h.
Assay-ready compound plates (384 well plates containing compound or DMSO controls) were then prepared prior to addition to cells. In addition to the supplied compounds, 5 µl γ-glutamyl-hydroxamate (GHX, 60 mM dissolved in mHBSS, serving as an inhibitor control) was added into inhibitor control wells using a JANUS G3 robot (PerkinElmer). Subsequently, 25 uL of mHBSS was dispensed into all wells of the 384 well plate using a Multidrop Combi. All samples were then mixed using the JANUS G3 robot and 15 µl dispensed on top of the cell monolayer to reach a final concentration of 10.05 µM.
The FMP dye was solved freshly with mHBSS, 20 µl of which was deposited into each well using the Multidrop Combi, and the cells were incubated at room temperatur for 30 min. Each plate was then placed in an EnVision microplate reader (PerkinElmer) and a single baseline measurement was taken for each well (bottom reads excitation at 531, emission at 579 nm). The plate was then transferred to the Multidrop Combi and 10 µl/well of 5 mM glutamine was dispensed into each well. After linearly shaking for 5 s, microplates were returned to the EnVision microplate reader for a single post-injection measurement per well. The change of fluorescence was measured after 60 s.
Z′ scores were calculated from the controls onboard each of the 384-well plates assayed in the primary and secondary screen as described by Zhang et al., ([Zhang et al., 1999]). For the control inhibitor γ-glutamyl-hydroxamate (GHX) a Z’ score of 0.717 was determined, which was a sufficient signal for a HTS.

[2] = molecular target: T1, SNAT1 (Homo sapiens, UniProt Q9H2H9); experiment: Alanine uptake in HCC1806 D126 (ASCT2ko, SNAT2ko) cells; format: cell-based
T1 construct: SNAT1 remained active as indicated by the Na^+-dependence of alanine uptake; endogenous in cells; host or cells: HCC1806 clone D126 (ASCT2ko, SNAT2ko), amino acid depleted for 24 h
T1 sequence (Q9H2H9 1-487): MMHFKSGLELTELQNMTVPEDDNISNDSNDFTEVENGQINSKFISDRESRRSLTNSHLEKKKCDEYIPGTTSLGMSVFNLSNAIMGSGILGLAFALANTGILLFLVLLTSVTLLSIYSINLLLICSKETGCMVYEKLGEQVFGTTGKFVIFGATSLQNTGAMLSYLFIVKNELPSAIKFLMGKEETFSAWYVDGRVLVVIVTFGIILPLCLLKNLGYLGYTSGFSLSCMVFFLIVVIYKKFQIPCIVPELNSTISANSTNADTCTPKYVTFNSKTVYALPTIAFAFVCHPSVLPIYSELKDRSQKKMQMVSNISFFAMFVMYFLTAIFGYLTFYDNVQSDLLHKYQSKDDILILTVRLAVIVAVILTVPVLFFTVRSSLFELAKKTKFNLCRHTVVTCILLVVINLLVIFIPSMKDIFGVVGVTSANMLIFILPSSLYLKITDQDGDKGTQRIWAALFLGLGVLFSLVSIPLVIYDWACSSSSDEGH
Experimental: (§1) To delete the SNAT2 (SLC38A2) gene in modified HCC1806 cells (clone C10 nullizygous for ASCT2 ([Broer et al., 2019])), the GeneArt CRISPR Nuclease Vector with OFP Reporter Kit (Invitrogen; A21174) was employed and complementary 19–20 bp long single-stranded oligonucleotides with overhangs were designed to produce a guide RNA (gRNA) for the Cas9 nuclease that would target exon 7 of the SNAT2 gene. Colonies were analysed by sequencing using the U6 primer included in the GeneArt CRISPR Nuclease Vector with OFP Reporter kit. Plasmids that contained the correct CRISPR nuclease construct were then used to transfect HCC1806 cells with Lipofectamine 2000 (Invitrogen). Prior to transfection, medium was replaced with 2 ml of fresh DMEM/F-12 (supplemented with 10% heat-inactivated FBS and 2 mM glutamine). Plasmid DNA (4 µg) and 10 µL of Lipofectamine 2000 were incubated separately for 5 min at room temperature in 500 µl of Opti-MEM (Invitrogen) before being combined and incubated for a further 30 min at room temperature. The DNA-Lipofectamine complex was then added to the cells in a dropwise manner and allowed to be absorbed over 6 h at 37°C, after which the medium was renewed with fresh DMEM/F-12. Cells were checked for red fluorescence using an EVOS FL cell imaging system (Thermo Fisher Scientific) 48–72 h post transfection. Subsequently, cells were detached using 0.25% Trypsin EDTA. After harvesting and washing thrice with PBS (pH 7.4), cells were resuspended in PBS (pH 7.4) supplemented with 5 mM glucose and 1% dialysed and heat inactivated FBS and passed through a 100 μm cell strainer. The cell filtrate was then pelleted once more and resuspended in the same buffer. Cells were sorted using an ARIA II FACS machine and individually dispensed into the wells of a 96-well plate. Nullizygous clones were identified using a series of assays including the FLIPR membrane potential assay, western blotting and sequencing.
(§2) Functional characterisation of plasma membrane transporters in human cancer cells was determined at 37°C using an array of radiolabelled amino acid substrates. Modified Hanks HEPES-buffered salts solution (mHBSS; 137 mM NaCl; 5.4 mM KCl; 2.7 mM K2HPO4; 1 mM CaCl2; 0.5 mM MgCl2; 0.44 mM KH2PO4; 0.4 mM MgSO4; 5 mM D-glucose; 5 mM HEPES; pH 7.4) was used to wash and incubate cells where sodium dependent transport was measured, while N-methyl-D-glucamine (NMDG) and potassium salts substituted sodium in NMDG mHBSS to measure sodium independent uptake. For the assay, cells were seeded in 35 mm dishes and, once confluent, were washed thrice with warm mHBSS solution and incubated with mHBSS containing an 100 µM amino acid at a final specific activity of ≥2000 cpm/nmol (U-[^14C]amino acids were from PerkinElmer). After 6 min, cells were washed thrice with ice-cold mHBSS, lysed with 500 µl of 0.1 M HCl, detached with a cell scraper and triturated. A 400 µl aliquot was used for scintillation counting, while the remainder was saved for protein mass quantification by Bradford assay. Transport rates were normalised to the protein content of the culture dish.

[3] = system: SNAT1/2; experiment: [14C]glutamine uptake in HCC1806 cells; format: cell-based, human
Experimental: as §2

[4] = system: SNAT2; experiment: Radiolabelled proline uptake in amino acid depleted SKOV3 cells; format: cell-based, human; details: for inhibition of proline uptake: 10 mM
Experimental: as §2
IC50 were calculated using equation y=ymax(1−x/x+IC50)

[5] = system: SNAT1/2; experiment: FMP assay: depolarisation by amino acid substrates in amino acid depleted HCC1806 cells; format: cell-based, human; details: for FMP fluorescence reading: amino acid 1 mM final
Experimental: The FLIPR Membrane Potential Blue Explorer Kit (Molecular Devices) was used to characterise inhibitors and to optimise a high-throughput compound screen. Cells were seeded at approximately 60,000 cells/well on a 96-well plate and allowed to attach and grow overnight in a cell incubator. […] Cells were then washed once with mHBSS and incubated with 50 µl of the mHBSS-resuspended FMP assay dye and 50 µl of mHBSS (with or without inhibitors) and incubated at room temperature for 30 min. The plate was then placed in an EnSpire Multimode plate reader (PerkinElmer) and four sequential measurements of fluorescence were recorded as a baseline reference. Immediately after the baseline measurements were taken, 25 µl of 5 mM glutamine dissolved in mHBSS was injected into each well and the plate was shaken orbitally for 5 s before a series of consecutive fluorescence measurements were taken. The excitation wavelength was set to 530 nm and the emission was detected at 565 nm. […] After the assay was complete, the liquid content of the plate was carefully removed, and the cell monolayer inspected to ensure it remained intact throughout the course of the assay.

[6] = system: SNAT1 and SNAT2; experiment: FMP assay in HCC1806 clones C10 (ASCT2ko) and D126 (ASCT2ko, SNAT2ko); format: cell-based, human; details: MeAIB 10 mM; glutamine 1 mM
Experimental: as §1
The FLIPR Membrane Potential Blue Explorer Kit (Molecular Devices) was used to characterise inhibitors and to optimise a high-throughput compound screen. Cells were seeded at approximately 60,000 cells/well on a 96-well plate and allowed to attach and grow overnight in a cell incubator. The next day, the cells were washed once with mHBSS and incubated in a starvation medium (composed of mHBSS with 1% dialysed heat-inactivated FBS, 23 mM NaHCO3, 10 U/ml penicillin and 10 μg/ml streptomycin) for 24 h. Cells were then washed once with mHBSS and incubated with 50 µl of the mHBSS-resuspended FMP assay dye and 50 µl of mHBSS (with or without inhibitors) and incubated at room temperature for 30 min. The plate was then placed in an EnSpire Multimode plate reader (PerkinElmer) and four sequential measurements of fluorescence were recorded as a baseline reference. Immediately after the baseline measurements were taken, 25 µl of 5 mM glutamine dissolved in mHBSS was injected into each well and the plate was shaken orbitally for 5 s before a series of consecutive fluorescence measurements were taken. The excitation wavelength was set to 530 nm and the emission was detected at 565 nm. The Δ fluorescent signal reported in the figures was taken 30 s after substrate addition. After the assay was complete, the liquid content of the plate was carefully removed, and the cell monolayer inspected to ensure it remained intact throughout the course of the assay.

[7] = system: HCC1806 cells; experiment: [14C]alanine uptake in non-depleted HCC1806 cells; format: cell-based, human; details: amino acid replete HCC1806 cells
Experimental: as §2

Q: For CC(=O)C(=O)O [pyruvate], which “influence on FMP signal” value [1] is on record?
A: did not influence the signal

Q: With OC[C@H]1OC(O)[C@H](O)[C@@H](O)[C@@H]1O (stereo partly shown) [glucose] as the molecule, how does the “influence on FMP signal” value [1] read?
A: did not influence the signal

Q: Which “Alanine uptake (nmol / mg protein x 6 min)” value ([2]; Figure 4B, 10mM, replicates 1-3) does the source give for CNC(C)(C)C(=O)O [MeAIB, N-methyl-aminoisobutyric acid] here?
A: 11.1023 nmol / mg protein x 6 min and 10.5839 nmol / mg protein x 6 min and 9.888 nmol / mg protein x 6 min

Q: And the “inhibition of alanine uptake” value ([2]; HCC1806 D126, Figure 4B, betaine and MeAIB 10 mM)?
A: inhibition

Q: What about the Glutamine uptake ([3]; AA+ (growth medium), 100 µM glutamine, replicates 1-3) of the same molecule?
A: 39.8616 nmol / mg protein x 6 min and 35.3498 nmol / mg protein x 6 min and 40.7838 nmol / mg protein x 6 min

Q: What about the Glutamine uptake ([3]; AA- (starvation medium 24 h), 100 µM glutamine, replicates 1-3) of the same molecule?
A: 8.629 nmol / mg protein x 6 min and 3.7831 nmol / mg protein x 6 min and 8.492 nmol / mg protein x 6 min

Q: And the “Glutamine uptake (nmol / mg protein x 6 min)” value ([3]; Figure 3D, replicates 1-3)?
A: 35.1959 nmol / mg protein x 6 min and 29.1234 nmol / mg protein x 6 min and 25.7847 nmol / mg protein x 6 min

Q: What about the “reduction of glutamine uptake” value ([3]; amino acid depleted HCC1806 cells (24 h), 100 µM glutamine) of the same molecule?
A: 80%

Q: And the “inhibition of glutamine uptake” value ([3]; fed HCC1806 cells)?
A: barely inhibited

Q: What about the “inhibition of proline uptake” value ([4]; Figure 4A) of the same molecule?
A: strong inhibition

Q: And the “inhibition of proline uptake” value ([4]; Figure 4D (15 h starvation))?
A: almost completely

Q: And the “Proline uptake (nmol / mg protein x 6 min)” value ([4]; Figure 4A, 10mM, replicates 1-3)?
A: 3.275 nmol / mg protein x 6 min and 3.216 nmol / mg protein x 6 min and 2.965 nmol / mg protein x 6 min

Q: And the “Proline uptake (nmol / mg protein x 6 min)” value ([4]; Figure 5B, reference inhibitors, replicates)?
A: 1.301 nmol / mg protein x 6 min and 1.471 nmol / mg protein x 6 min and 1.547 nmol / mg protein x 6 min

Q: And the “FMP response as substrate” value ([5]; 1 mM)?
A: weaker signal

Q: What about the FMP fluorescence reading ([5]; t=0 s) of the same molecule?
A: 49084 and 50100 and 40663

Q: What about the FMP fluorescence reading ([5]; t=15 s) of the same molecule?
A: 81984 and 86589 and 75934

Q: And the FMP fluorescence reading ([5]; t=30 s)?
A: 86634 and 91101 and 78520

Q: What about the FMP fluorescence reading ([5]; t=45 s) of the same molecule?
A: 90066 and 93398 and 80464

Q: And the FMP fluorescence reading ([5]; t=60 s)?
A: 92350 and 95113 and 80900

Q: And the FMP fluorescence reading ([5]; t=75 s)?
A: 92919 and 96006 and 80942

Q: And the FMP fluorescence reading ([5]; t=90 s)?
A: 93944 and 96169 and 81331

Q: And the FMP fluorescence reading ([5]; t=105 s)?
A: 93680 and 96448 and 80487

Q: What about the FMP fluorescence reading ([5]; t=120 s) of the same molecule?
A: 93733 and 95947 and 80206

Q: And the FMP fluorescence reading ([5]; t=135 s)?
A: 93032 and 95155 and 78841

Q: What about the FMP fluorescence reading ([5]; t=-15 s) of the same molecule?
A: 48467 and 50314 and 40490

Q: And the FMP fluorescence reading ([5]; t=-30 s, replicates 1-3)?
A: 48576 and 50230 and 40217

Q: What about the “FMP signal in D126 cells (ASCT2ko, SNAT2ko) compared to C10” value [6] of the same molecule?
A: 42%

Q: Which “inhibition of alanine transport” value [7] does the source give for N[C@@H](CCC(=O)Nc1ccc([N+](=O)[O-])cc1)C(=O)O [GPNA, γ-glutamyl-p-nitroanilide] here?
A: inhibited a large fraction of alanine transport
